# System: MDA-MB-231 complex spheroid viability
# Assay: Anticancer human tumor MDA-MB-231/ATCC cell line growth inhibition;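 note: drug exposure lasted 7 days starting on day 3 of spheroid growth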
# Conditions: for IC50: curve of first compound; for viability, T/C: stronger effect = lower value
# In short: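 Drug combinations with the LSD1 inhibitor iadademstat tested on tumor cells co-cultured as spheroids with endothelial cells and mesenchymal stem cells. Concentrations descended in half-log increments from clinical Cmax or 10 microM.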
# [1] = second compound 0.1 µM, first compound 0.0316 µM
# [2] = second compound 0.1 µM, first compound 0.1 µM
# [3] = second compound 0.1 µM, first compound 0.316 µM
# [4] = second compound 0.1 µM, first compound 1 µM
# [5] = second compound 0.316 µM, first compound 0.0316 µM
# [6] = second compound 0.316 µM, first compound 0.1 µM
# [7] = second compound 0.316 µM, first compound 0.316 µM
# [8] = second compound 0.316 µM, first compound 1 µM
# [9] = second compound 1 µM, first compound 0.0316 µM
# [10] = second compound 1 µM, first compound 0.1 µM
# [11] = second compound 1 µM, first compound 0.316 µM
# [12] = second compound 1 µM, first compound 1 µM
# [13] = second compound 3.16 µM, first compound 0.0316 µM
# [14] = second compound 3.16 µM, first compound 0.1 µM
# [15] = second compound 3.16 µM, first compound 0.316 µM
# [16] = second compound 3.16 µM, first compound 1 µM
# [17] = second compound 10 µM, first compound 0.0316 µM
# [18] = second compound 10 µM, first compound 0.1 µM
# [19] = second compound 10 µM, first compound 0.316 µM
# [20] = second compound 10 µM, first compound 1 µM
# [21] = second compound 0.1 µM, first compound 0.00316 µM
# [22] = second compound 0.1 µM, first compound 0.01 µM
# [23] = second compound 0.316 µM, first compound 0.00316 µM
# [24] = second compound 0.316 µM, first compound 0.01 µM
# [25] = second compound 1 µM, first compound 0.00316 µM
# [26] = second compound 1 µM, first compound 0.01 µM
# [27] = second compound 3.16 µM, first compound 0.00316 µM
# [28] = second compound 3.16 µM, first compound 0.01 µM
# [29] = second compound 10 µM, first compound 0.00316 µM
# [30] = second compound 10 µM, first compound 0.01 µM
smiles,measurement,setting,value
CCc1c2c(nc3ccc(O)cc13)-c1cc3c(c(=O)n1C2)COC(=O)[C@]3(O)CC + NC1CC1c1ccc(-c2cccc(O)c2)cc1,IC50,second compound 0.1 µM,< 0.949 nM
same,IC50,second compound 0.316 µM,< 0.949 nM
same,IC50,second compound 1 µM,< 0.949 nM
same,IC50,second compound 3.16 µM,< 0.949 nM
same,IC50,second compound 10 µM,< 0.949 nM
same,"viability, T/C","second compound 0.1 µM, first compound 0.000949 µM",22.7%
same,"viability, T/C","second compound 0.1 µM, first compound 0.003 µM",19.7%
same,"viability, T/C","second compound 0.1 µM, first compound 0.00949 µM",18.3%
same,"viability, T/C","second compound 0.1 µM, first compound 0.03 µM",4.83%
same,"viability, T/C","second compound 0.1 µM, first compound 0.0949 µM",1.03%
same,"viability, T/C","second compound 0.1 µM, first compound 0.3 µM",0.74%
same,"viability, T/C","second compound 0.316 µM, first compound 0.000949 µM",22.5%
same,"viability, T/C","second compound 0.316 µM, first compound 0.003 µM",22%
same,"viability, T/C","second compound 0.316 µM, first compound 0.00949 µM",19.4%
same,"viability, T/C","second compound 0.316 µM, first compound 0.03 µM",5.07%
same,"viability, T/C","second compound 0.316 µM, first compound 0.0949 µM",0.91%
same,"viability, T/C","second compound 0.316 µM, first compound 0.3 µM",0.54%
same,"viability, T/C","second compound 1 µM, first compound 0.000949 µM",23.9%
same,"viability, T/C","second compound 1 µM, first compound 0.003 µM",20.1%
same,"viability, T/C","second compound 1 µM, first compound 0.00949 µM",17.1%
same,"viability, T/C","second compound 1 µM, first compound 0.03 µM",5.94%
same,"viability, T/C","second compound 1 µM, first compound 0.0949 µM",0.68%
same,"viability, T/C","second compound 1 µM, first compound 0.3 µM",0.61%
same,"viability, T/C","second compound 3.16 µM, first compound 0.000949 µM",22.4%
same,"viability, T/C","second compound 3.16 µM, first compound 0.003 µM",20.1%
same,"viability, T/C","second compound 3.16 µM, first compound 0.00949 µM",18.4%
same,"viability, T/C","second compound 3.16 µM, first compound 0.03 µM",5.48%
same,"viability, T/C","second compound 3.16 µM, first compound 0.0949 µM",0.85%
same,"viability, T/C","second compound 3.16 µM, first compound 0.3 µM",0.54%
same,"viability, T/C","second compound 10 µM, first compound 0.000949 µM",18.5%
same,"viability, T/C","second compound 10 µM, first compound 0.003 µM",20.4%
same,"viability, T/C","second compound 10 µM, first compound 0.00949 µM",13.1%
same,"viability, T/C","second compound 10 µM, first compound 0.03 µM",1.68%
same,"viability, T/C","second compound 10 µM, first compound 0.0949 µM",0.74%
same,"viability, T/C","second compound 10 µM, first compound 0.3 µM",0.5%
CC1(C)CCC(CN2CCN(c3ccc(C(=O)NS(=O)(=O)c4ccc(NCC5CCOCC5)c([N+](=O)[O-])c4)c(Oc4cnc5[nH]ccc5c4)c3)CC2)=C(c2ccc(Cl)cc2)C1 + NC1CC1c1ccc(-c2cccc(O)c2)cc1,IC50,second compound 0.1 µM,4480 nM
same,IC50,second compound 0.316 µM,4290 nM
same,IC50,second compound 1 µM,4430 nM
same,IC50,second compound 3.16 µM,4280 nM
same,IC50,second compound 10 µM,< 31.6 nM
same,"viability, T/C",[1],90.9%
same,"viability, T/C",[2],93%
same,"viability, T/C",[3],94.5%
same,"viability, T/C",[4],112%
same,"viability, T/C","second compound 0.1 µM, first compound 3.16 µM",71.2%
same,"viability, T/C","second compound 0.1 µM, first compound 10 µM",1.41%
same,"viability, T/C",[5],74.1%
same,"viability, T/C",[6],78.6%
same,"viability, T/C",[7],82.1%
same,"viability, T/C",[8],77.9%
same,"viability, T/C","second compound 0.316 µM, first compound 3.16 µM",67.6%
same,"viability, T/C","second compound 0.316 µM, first compound 10 µM",1.16%
same,"viability, T/C",[9],75.2%
same,"viability, T/C",[10],70%
same,"viability, T/C",[11],76.7%
same,"viability, T/C",[12],80.5%
same,"viability, T/C","second compound 1 µM, first compound 3.16 µM",70%
same,"viability, T/C","second compound 1 µM, first compound 10 µM",1.72%
same,"viability, T/C",[13],68.2%
same,"viability, T/C",[14],70.2%
same,"viability, T/C",[15],78.8%
same,"viability, T/C",[16],79.4%
same,"viability, T/C","second compound 3.16 µM, first compound 3.16 µM",67.1%
same,"viability, T/C","second compound 3.16 µM, first compound 10 µM",1.48%
same,"viability, T/C",[17],48.5%
same,"viability, T/C",[18],42.5%
same,"viability, T/C",[19],48.5%
same,"viability, T/C",[20],55.3%
same,"viability, T/C","second compound 10 µM, first compound 3.16 µM",45.6%
same,"viability, T/C","second compound 10 µM, first compound 10 µM",0.6%
O=C(C=Cn1cnc(-c2cc(C(F)(F)F)cc(C(F)(F)F)c2)n1)NNc1cnccn1 + NC1CCC(NC2CC2c2ccccc2)CC1,IC50,second compound 0.1 µM,5.44 nM
same,IC50,second compound 0.316 µM,4.93 nM
same,IC50,second compound 1 µM,6.56 nM
same,IC50,second compound 3.16 µM,6.04 nM
same,IC50,second compound 10 µM,< 3.16 nM
same,"viability, T/C",[21],61.7%
same,"viability, T/C",[22],37%
same,"viability, T/C",[1],14.9%
same,"viability, T/C",[2],10.4%
same,"viability, T/C",[3],9%
same,"viability, T/C",[4],6.32%
same,"viability, T/C",[23],58.9%
same,"viability, T/C",[24],36.2%
same,"viability, T/C",[5],15%
same,"viability, T/C",[6],11.4%
same,"viability, T/C",[7],7.56%
same,"viability, T/C",[8],5.07%
same,"viability, T/C",[25],64.6%
same,"viability, T/C",[26],41.7%
same,"viability, T/C",[9],15.4%
same,"viability, T/C",[10],11.4%
same,"viability, T/C",[11],8.75%
same,"viability, T/C",[12],6.54%
same,"viability, T/C",[27],56%
same,"viability, T/C",[28],45.4%
same,"viability, T/C",[13],13.9%
same,"viability, T/C",[14],11.2%
same,"viability, T/C",[15],8.03%
same,"viability, T/C",[16],6.06%
same,"viability, T/C",[29],49.2%
same,"viability, T/C",[30],34.5%
same,"viability, T/C",[17],14%
same,"viability, T/C",[18],9.12%
same,"viability, T/C",[19],7.43%
same,"viability, T/C",[20],5.83%
COc1cc(Nc2ncc3c(n2)-c2ccc(Cl)cc2C(c2c(F)cccc2OC)=NC3)ccc1C(=O)O + NC1CC1c1ccc(-c2cccc(O)c2)cc1,IC50,second compound 0.1 µM,< 3.16 nM
same,IC50,second compound 0.316 µM,< 3.16 nM
same,IC50,second compound 1 µM,< 3.16 nM
same,IC50,second compound 3.16 µM,< 3.16 nM
same,IC50,second compound 10 µM,< 3.16 nM
same,"viability, T/C",[21],43.8%
same,"viability, T/C",[22],48.9%
same,"viability, T/C",[1],43%
same,"viability, T/C",[2],40.8%
same,"viability, T/C",[3],32.4%
same,"viability, T/C",[4],21.9%
same,"viability, T/C",[23],40.7%
same,"viability, T/C",[24],40%
same,"viability, T/C",[5],38.5%
same,"viability, T/C",[6],34.7%
same,"viability, T/C",[7],27.3%
same,"viability, T/C",[8],21.4%
same,"viability, T/C",[25],37.5%
same,"viability, T/C",[26],39.9%
same,"viability, T/C",[9],38.3%
same,"viability, T/C",[10],38%
same,"viability, T/C",[11],25.1%
same,"viability, T/C",[12],18.6%
same,"viability, T/C",[27],41.4%
same,"viability, T/C",[28],41.4%
same,"viability, T/C",[13],41.1%
same,"viability, T/C",[14],35%
same,"viability, T/C",[15],28.1%
same,"viability, T/C",[16],18.9%
same,"viability, T/C",[29],30.7%
same,"viability, T/C",[30],33%
same,"viability, T/C",[17],31.3%
same,"viability, T/C",[18],31.1%
same,"viability, T/C",[19],22.4%
same,"viability, T/C",[20],15.7%
O=C(C=Cn1cnc(-c2cc(C(F)(F)F)cc(C(F)(F)F)c2)n1)NNc1cnccn1 + NC1CC1c1ccc(-c2cccc(O)c2)cc1,IC50,second compound 0.1 µM,< 3.16 nM
same,IC50,second compound 0.316 µM,< 3.16 nM
same,IC50,second compound 1 µM,< 3.16 nM
same,IC50,second compound 3.16 µM,< 3.16 nM
same,IC50,second compound 10 µM,< 3.16 nM
same,"viability, T/C",[21],27.7%
same,"viability, T/C",[22],27.4%
same,"viability, T/C",[1],13.1%
same,"viability, T/C",[2],5.67%
same,"viability, T/C",[3],4.44%
same,"viability, T/C",[4],5.61%
same,"viability, T/C",[23],28.6%
same,"viability, T/C",[24],27.3%
same,"viability, T/C",[5],13.2%
same,"viability, T/C",[6],5.36%
same,"viability, T/C",[7],5.11%
same,"viability, T/C",[8],5.35%
same,"viability, T/C",[25],25.6%
same,"viability, T/C",[26],25.4%
same,"viability, T/C",[9],14.6%
same,"viability, T/C",[10],4.77%
same,"viability, T/C",[11],4.77%
same,"viability, T/C",[12],4.71%
same,"viability, T/C",[27],27%
same,"viability, T/C",[28],25%
same,"viability, T/C",[13],13.6%
same,"viability, T/C",[14],5.37%
same,"viability, T/C",[15],6.01%
same,"viability, T/C",[16],4.79%
same,"viability, T/C",[29],22.5%
same,"viability, T/C",[30],17.5%
same,"viability, T/C",[17],14.9%
same,"viability, T/C",[18],5.78%
same,"viability, T/C",[19],6.15%
same,"viability, T/C",[20],7.13%
